Measured values taken from patent US20110020786A1, “PEPTIDE DENDRIMERS: AFFINITY REAGENTS FOR BINDING NOROVIRUSES” (BAYLOR COLLEGE OF MEDICINE, priority 2007, published 2011).
Ends that are not written are not given here.

Assays:
immobilized NoVLPs = test: Surface plasmon resonance, dendrimer binding to immobilized NoVLPs (KD determination); set-up: species or system Norovirus; conditions: steady-state model fit of equilibrium average response, 8-240 μM dendrimer, HBS-P, 10 μL/min
Protocol: FIGS. 4A-4B are charts illustrating the concentration dependence of RHFQTHTVPLSL8 (the octovalent dendrimer of SEQ ID NO: 1) binding to immobilized NoVLPs. 1-8 μM; 2-32 μM; 3-64 μM; 4-96 μM; 5-160 μM; 6-240 μM; (FIG. 4A). Samples were prepared in the running buffer (HBS-P) and injected at a flowrate of 10 μL/min. The arrow indicates the end of the injection of the dendrimer (binding phase) which is followed by washing with running buffer (dissociation phase).
Peptide binding to VLPs was detected using a BIAcore 3000 instrument. VLPs were immobilized to a CM5 sensor chip using amine coupling at 5 μL/min in HBS buffer (10 mM HEPES containing 0.15 M NaCl and 0.005% surfactant P20, pH 7.4): the sensor chip surface was activated by a 10 min injection of a solution of 0.05 M NHS (N-hydroxysuccinimide) and 0.2 M EDC (N-ethyl-N′-dimethylaminopropylcarbodiimide) followed by a 5 min injection of VLPs (100 μg/mL) in 10 mM sodium acetate pH 4 and blocking of unreacted activated groups with a 7 min injection of ethanolamine. Final surface densities were typically around 9000 RU.

[1] = system: native genogroup II Norovirus from clinical samples; test: Native NoV capture and detection in clinical samples by ELISA; format: binding; conditions: dendrimer as capture reagent, stool samples GII #1-3, bound virus detected with NS14
Protocol: The capture reagent was RHFQTHTVPLSL8 (the octovalent dendrimer of SEQ ID NO: 1) (middle bars), or AHFQTHTVPLSL8 (the octovalent dendrimer of SEQ ID NO: 2) (right bars) and bound virus was detected with a MAb3912 (GI) or NS14 (GII). […] For comparison, detection of Norovirus from genogroup I samples (GI#1-3) was evaluated using a genogroup I specific antibody as the capture reagent (left bars). The potential of false positive signals was evaluated using clinical samples negative for Norovirus (negative #1-3) with anti-genogroup I antibody, RHFQTHTVPLSL8 (the octovalent dendrimer of SEQ ID NO: 1) and AHFQTHTVPLSL8 (the octovalent dendrimer of SEQ ID NO: 2) as capture reagents.
Capture and detection of native NoV from clinical samples was performed by ELISA. […] Captured NoV was detected with an anti-Norwalk virus antibody from rabbit (for genogroup I Norwalk detection) or NS14 (for genogroup II NoV detection) as the primary antibody followed by goat anti-rabbit-HRP or goat anti-mouse-HRP as the secondary antibody with detection at 405 nm using the HRP substrate ABTS.

With “RHFQTHTVPLSL8 (also: octovalent dendrimer of the peptide)” the Kd (immobilized NoVLPs) was 117 µM and the “capture of native genogroup II Norovirus from clinical samples” value [1] was “No genogroup II virus could be detected”.
